Data as given in the supplement of paper PMC10307832.

Key:
Assay in all cases: relative viability (nuclei count vs DMSO), 5 days (fraction); higher = more cells survive
Sunitinib + Lapatinib = compound: CCN(CC)CCNC(=O)c1c(C)[nH]c(/C=C2\C(=O)Nc3ccc(F)cc32)c1C [Sunitinib] + CS(=O)(=O)CCNCc1ccc(-c2ccc3ncnc(Nc4ccc(OCc5cccc(F)c5)c(Cl)c4)c3c2)o1 [Lapatinib] (partner 2 µM)
How it was run: (§1)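 Relative viability divides the nuclei count in treated wells by that in vehicle wells. Lung cancer cell lines were seeded in 1536-well plates, dosed by pin tool the next day, and fixed and stained after 5 days in one step with final 0.05% Triton X-100, 1% formaldehyde and 1 ug/ml Hoechst. Dosing was a single drug or a fixed anchor-drug dose plus five library-drug doses (not always all listed) in √10 steps, and values are medians of duplicate plates imaged at 4×.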

Sunitinib + Crizotinib = compound: CCN(CC)CCNC(=O)c1c(C)[nH]c(/C=C2\C(=O)Nc3ccc(F)cc32)c1C [Sunitinib] + C[C@@H](Oc1cc(-c2cnn(C3CCNCC3)c2)cnc1N)c1c(Cl)ccc(F)c1Cl [Crizotinib] (partner 1 µM)
How it was run: as §1

Sunitinib + Dasatinib = compound: CCN(CC)CCNC(=O)c1c(C)[nH]c(/C=C2\C(=O)Nc3ccc(F)cc32)c1C [Sunitinib] + Cc1nc(Nc2ncc(C(=O)Nc3c(C)cccc3Cl)s2)cc(N2CCN(CCO)CC2)n1 [Dasatinib] (partner 0.075 µM)
How it was run: as §1

Sunitinib + Pemetrexed = compound: CCN(CC)CCNC(=O)c1c(C)[nH]c(/C=C2\C(=O)Nc3ccc(F)cc32)c1C [Sunitinib] + Nc1nc2[nH]cc(CCc3ccc(C(=O)N[C@@H](CCC(=O)O)C(=O)O)cc3)c2c(=O)[nH]1 [Pemetrexed] (partner 0.2 µM)
How it was run: as §1

Row | Cell Line | relative viability (Sunitinib + Lapatinib; first compound 0.02 µM) | relative viability (Sunitinib + Lapatinib; first compound 0.06325 µM) | relative viability (Sunitinib + Lapatinib; first compound 0.2 µM) | relative viability (Sunitinib + Lapatinib; first compound 0.6325 µM) | relative viability (Sunitinib + Lapatinib; first compound 2 µM) | relative viability (Sunitinib + Crizotinib; first compound 0.02 µM) | relative viability (Sunitinib + Crizotinib; first compound 0.06325 µM) | relative viability (Sunitinib + Crizotinib; first compound 0.2 µM) | relative viability (Sunitinib + Crizotinib; first compound 0.6325 µM) | relative viability (Sunitinib + Dasatinib; first compound 0.02 µM) | relative viability (Sunitinib + Dasatinib; first compound 0.06325 µM) | relative viability (Sunitinib + Dasatinib; first compound 0.2 µM) | relative viability (Sunitinib + Dasatinib; first compound 0.6325 µM) | relative viability (Sunitinib + Dasatinib; first compound 2 µM) | relative viability (Sunitinib + Pemetrexed; first compound 0.02 µM) | relative viability (Sunitinib + Pemetrexed; first compound 0.06325 µM) | relative viability (Sunitinib + Pemetrexed; first compound 0.2 µM) | relative viability (Sunitinib + Pemetrexed; first compound 0.6325 µM) | relative viability (Sunitinib + Pemetrexed; first compound 2 µM) | relative viability (Sunitinib + Crizotinib; first compound 2 µM)
1 | NCI-H1975 | 0.815 | 1.1 | 1.14 | 0.981 | 0.763 | 0.885 | 0.96 | 1.05 | 0.954 | 0.36 | 0.403 | 0.399 | 0.423 | 0.344 | 0.289 | 0.318 | 0.317 | 0.298 | 0.305 | 
2 | NCI-H1563 | 0.925 | 0.988 | 1.03 | 1.09 | 1.05 | 0.833 | 0.878 | 0.805 | 0.946 | 0.487 | 0.505 | 0.441 | 0.422 | 0.489 | 0.759 | 0.727 | 0.782 | 0.721 | 0.852 | 0.906
3 | NCI-H2228 | 1.04 | 1.23 | 1.13 | 1.16 |  | 0.495 | 0.553 | 0.435 | 0.583 | 0.526 | 0.607 | 0.613 | 0.494 | 0.408 | 0.343 | 0.313 | 0.37 | 0.349 | 0.349 | 0.351
4 | LC-2-ad | 0.916 | 1.11 | 1.07 | 0.904 | 0.581 | 0.446 | 0.554 | 0.452 | 0.521 | 0.621 | 0.599 | 0.872 | 0.558 | 0.403 | 0.266 | 0.275 | 0.291 | 0.303 | 0.26 | 0.534
5 | HARA | 0.767 | 0.813 | 0.881 | 0.729 | 0.801 | 1.02 | 1.11 | 1.41 | 1.19 | 0.2 | 0.254 | 0.278 | 0.286 | 0.302 | 0.26 | 0.274 | 0.241 | 0.222 | 0.263 | 
6 | PC-3 [JPC-3] | 0.456 | 0.459 | 0.494 | 0.464 | 0.5 | 1.03 | 0.943 | 1.01 | 1.02 | 1.04 | 0.903 | 1.19 | 1.05 | 0.967 | 1.35 | 1.08 | 1.13 | 1.11 | 1.03 | 0.984
7 | LCLC-97TM1 | 1.06 | 0.81 |  | 0.924 |  | 0.347 | 0.384 |  | 0.319 | 0.918 | 0.904 | 0.914 | 0.911 | 0.793 | 0.167 | 0.198 | 0.164 | 0.163 | 0.212 | 0.362
8 | LU99A | 0.869 | 1.12 | 0.925 | 1.14 | 1.01 | 0.517 | 0.524 | 0.605 | 0.764 | 0.489 | 0.5 | 0.612 | 0.57 | 0.49 | 0.199 | 0.185 | 0.198 | 0.151 | 0.162 | 0.674
9 | NCI-H1666 |  | 0.9 | 0.584 | 0.719 | 0.671 | 1.06 | 0.978 | 1.08 | 1.19 | 0.77 | 0.948 | 0.936 | 0.862 | 0.942 | 0.827 | 0.834 | 0.936 | 0.867 | 0.997 | 1.07
10 | NCI-H520 | 0.786 |  | 0.964 | 0.916 |  | 0.83 | 0.699 | 0.856 | 0.63 | 0.226 | 0.186 | 0.18 | 0.224 | 0.217 | 0.61 | 0.814 | 0.686 | 0.761 | 0.6 | 0.601
11 | A-427 | 1 | 1.12 | 1.11 | 1.16 | 1.08 | 0.865 | 0.885 | 1.09 | 0.847 | 0.66 | 0.641 | 0.787 | 0.723 | 0.692 | 0.993 | 1 | 0.95 | 0.997 | 1.01 | 0.787
12 | NCI-H23 | 1.1 | 1.42 | 1.44 | 1.36 | 1.08 | 0.478 | 0.477 | 0.854 | 0.548 | 0.658 | 0.787 | 0.959 | 0.955 | 0.794 | 0.689 | 0.823 | 0.922 | 0.86 | 0.563 | 0.527
